Reference: patent EP0551675A1, “Oral hygiene compositions containing antiplaque agents” (UNILEVER N.V., priority 1991, dated 1993)
Values after ≈ are worked out from the molar mass of the structure shown. Where two headings read alike, the source gives them in different places.

Assays:
Actinomyces naeslundii = assay: Antimicrobial activity determination (MIC); format: cell-based; settings: for MIC: read-out: Minimimum Inhibitory Concentrations
Description: (§1) The antimicrobial activity of the targeted agents was assessed by determining the minimum inhibitory concentration (MIC). Pure cultures of various strains of oral bacterial species as indicated in Table 3 were combined with serial dilutions of the targeted agents in beef heart infusion broth (BHI); starting bacterial concentrations were approximately 1.0 x 10E6 colony forming units (CFU) per ml. The mixtures were incubated aerobically at 37 degrees C and the optical density (540 nm, path length 1cm) of the cultures was measured at 0.0, 24.0 and 48.0 hr using Bausch and Lomb Spec 20 variable wavelength spectrophotometer.

Candida albicans = assay: Antimicrobial activity determination (MIC); format: cell-based; settings: for MIC: read-out: Minimimum Inhibitory Concentrations
Description: as §1

Neisseria subflava = assay: Antimicrobial activity determination (MIC); format: cell-based; settings: for MIC: read-out: Minimimum Inhibitory Concentrations
Description: as §1

Porphyromonas gingivalis = assay: Antimicrobial activity determination (MIC); format: cell-based; settings: read-out: Minimimum Inhibitory Concentrations
Description: as §1

Prevotella intermedius = assay: Antimicrobial activity determination (MIC); format: cell-based; settings: read-out: Minimimum Inhibitory Concentrations
Description: as §1

Streptococcus sanguis = assay: Antimicrobial activity determination (MIC); format: cell-based; settings: for MIC: Streptococcus, read-out: Minimimum Inhibitory Concentrations
Description: as §1

Streptococcus sobrinus = assay: Antimicrobial activity determination (MIC); format: cell-based; settings: for MIC: read-out: Minimimum Inhibitory Concentrations
Description: as §1

Veillonella dispar = assay: Antimicrobial activity determination (MIC); format: cell-based; settings: read-out: Minimimum Inhibitory Concentrations
Description: as §1

[1] = Krafft point of a 1% dispersion in water; format: physicochemical; settings: 1% dispersion of the surfactant in water
Description: The temperature at and above which surfactants begin to form micelles instead of precipitates is referred to as Krafft point (Tk) and at this temperature the solubility of a surfactant becomes equal to its CMC.
Krafft point was measured by preparing a 1% dispersion of the surfactant in water. If the surfactant was soluble at room temperature, the solution was cooled to 0°C. […] If it precipitated out, the solution was slowly warmed with stirring in a water bath. The temperature at which the precipitate dissolved was determined to be the Krafft point.
If the Krafft point was above room temperature, the solution was first heated rapidly to dissolve all the surfactant. It was then cooled until precipitation occurred, and was then slowly warmed to determine the Krafft point described above.

[2] = system: Actinomyces naeslundii PK29 and Streptococcus sanguis G9B; assay: Bacterial coaggregation assay; format: cell-based; settings: for inhibition of coaggregation between A. naeslundii and S. sanguis: result in words
Description: A bacterial coaggregation assay was used to determine the ability of various amino sugars to interfere with lectin-mediated binding among various bacterial species. For instance, many Actinomyces naeslundii strains coaggregate with Streptococcus sanguis as a result of binding between a lectin produced by the A. naeslundii cells and β-galactose-containing structures on the surface of the streptococci. For the present assay, A. naeslundii PK29 and S. sanguis G9B were cultured overnight in a medium containing 2.5% tryptone, 1.5% yeast extract, 0.1% magnesium sulfate, and 1.0% fructose. The cells were then washed twice in a 1.0 mM potassium phosphate buffer (pH = 6.8) containing 1.0 mM calcium chloride, 0.1 mM magnesium chloride, and 50.0 mM potassium chloride (buffered KCl), after which they were resuspended in buffered KCl at an optical density (540 nm) of 1.5. The coaggregations were performed by combining 0.5 ml of each bacterial suspension with 0.2 ml of 5.0% bovine serum albumin (BSA) and 0.8 ml of an appropriate concentration of a targeted anti-plaque agent in 3.0 ml capped polystyrene cuvettes. The cuvettes (path length 1 cm) were gently inverted at room temperature, and the optical density (540 nm) was determined as a function of time (2.0 min intervals; 20 min). The instrument employed to measure optical density was a variable wavelength spectrophotometer (Gilson Response^(R) Spectrophotometer, bought from Gilson).
The activity of a tested compound was expressed as % inhibition relative to buffer controls (i.e., % inhibition = [1 - change in optical density (inhibitor)]/ change in optical density [control]) x 100 [formula] .
The ability of various aldobionamide compounds (prepared as described in Example 1) to target to β-galactose-specific binding proteins on A. naeslundii and thus to interfere with coaggregation interactions between A. naeslundii and S. sanquis was investigated. Coaggregation of Actinomyces naeslundii PK29 and Streptococcus sanguis G9B was performed as described in the Methods section (Bacterial Coaggregation Assay) above. % Inhibition was calculated as 1.0 - the change in optical density (540 nm) in the sample containing compound tested/the change in optical density in the coaggregation buffer control. The inhibitory activity of the antiplaque agents within the scope of the invention was compared to the inhibitory activity of lactobionic acid and N-alkyl gluconamides, which are not within the scope of the invention. The gluconamides were prepared analogously to N-alkyl lactobionamides from glucono-δ-lactone (Sigma Chemicals) and the requisite aliphatic amine.

[3] = system: several species of oral bacteria; assay: MIC assays on several species of oral bacteria (stated in words); format: cell-based; settings: result in words
Description: as §1

[4] = Foam height, Ross-Miles method; format: physicochemical; settings: 45°C, water with 120 ppm hardness
Description: Since most of the foaming data on surfactants is typically obtained by the Ross-Miles method (Ross, J. and Miles, G.D., am. Soc. for Testing Material Method D1173-53 Philadelphia, PA. (1953); Oil & Soap (1958) 62:1260) the foaming ability of these surfactants was also acquired using this method.
In the Ross-Miles method, 200 mL of a solution of surfactant contained in a pipette of specified dimensions with a 2.9-mm-i.d. orifice is allowed to fall 90 cm onto 50 mL of the same solution contained in a cylindrical vessel maintained at a given temperature (often 60°C) by means of a water jacket. The height of the foam produced in the cylindrical vessel is read immediately after all the solution has run out of the pipette (initial foam height) and then again after a given amount of time (generally, 5 min).
Using this method, the foam production (measured initially) and foam stability (the height after 10 minutes) are reported. […] The foam height is represented in millimeters (mm).

[5] = BHI broth, aerobic, 37 degrees C
[6] = Prevotella intermedius, BHI broth, aerobic, 37 degrees C
[7] = Streptococcus sanguis, BHI broth, aerobic, 37 degrees C

| Compound | MIC (Actinomyces naeslundii; [5]) [µg/mL] | MIC (Candida albicans; [5]) [µg/mL] | MIC (Neisseria subflava; [5]) [µg/mL] | MIC (Prevotella intermedius; [6]) [µg/mL] | MIC (Streptococcus sanguis; [7]) [µg/mL] | MIC (Streptococcus sobrinus; [5]) [µg/mL] | MIC (Veillonella dispar; [5]) [µg/mL] | further results |
| --- | --- | --- | --- | --- | --- | --- | --- | --- |
| CCCNC(=O)[C@H](O)[C@@H](O)[C@H](O[C@@H]1O[C@H](CO)[C@H](O)[C@H](O)[C@H]1O)[C@H](O)CO [Propyl lactobionamide, N-propyl lactobionamide] | > 5000 | > 1000 | > 1000 | > 1000 | > 1000 | > 5000 | > 1000 | MIC (Porphyromonas gingivalis; [5]): > 1000 µg/mL |
| CCCCCCCCCCCCCCCCNC(=O)[C@H](O)[C@@H](O)[C@H](O[C@@H]1O[C@H](CO)[C@H](O)[C@H](O)[C@H]1O)[C@H](O)CO [Hexadecyl lactobionamide, N-hexadecyl lactobionamide] | 60 (≈ 103 µM) | 1000 (≈ 1720 µM) | 1000 (≈ 1720 µM) | > 500 | 125 (≈ 215 µM) | 1000 (≈ 1720 µM) | > 500 | MIC (Porphyromonas gingivalis; [5]): > 500 µg/mL |
| CCCCCCCCNC(=O)[C@H](O)[C@@H](O)[C@H](O[C@@H]1O[C@H](CO)[C@H](O)[C@H](O)[C@H]1O)[C@H](O)CO [Octyl lactobionamide, N-octyl lactobionamide] | > 5000 | > 1000 | > 1000 | > 1000 | > 1000 | > 5000 | > 1000 | MIC (Porphyromonas gingivalis; [5]): > 1000 µg/mL |
| CCCCCCCCCCCCOC(=O)CCNC(=O)[C@H](O)[C@@H](O)[C@H](O[C@@H]1O[C@H](CO)[C@H](O)[C@H](O)[C@H]1O)[C@H](O)CO [Dodecyl-B-alanyl-lactobionamide, N-lactobionyl dodecyl β-alanate] | 125 (≈ 209 µM) | 500 (≈ 837 µM) | 500 (≈ 837 µM) | – | 125 (≈ 209 µM) | 1000 (≈ 1670 µM) | – | – |
| Tetradecyl-glycyl-lactobionamide | – | – | – | – | – | – | – | Minimimum Inhibitory Concentrations (Actinomyces naeslundii; [5]): 0.0008 % w/v; Minimimum Inhibitory Concentrations (Candida albicans; [5]): 0.05 % w/v; Minimimum Inhibitory Concentrations (Neisseria subflava; [5]): 0.05 % w/v; Minimimum Inhibitory Concentrations (Streptococcus sanguis; [7]): 0.003 % w/v; Minimimum Inhibitory Concentrations (Streptococcus sobrinus; [5]): 0.05 % w/v |
| CCCCCCCCCCCCCCNC(=O)[C@H](O)[C@@H](O)[C@H](O[C@@H]1O[C@H](CO)[C@H](O)[C@H](O)[C@H]1O)[C@H](O)CO [Tetradecyl lactobionamide, N-tetradecyl lactobionamide] | 15 (≈ 27.1 µM) | 30 (≈ 54.2 µM) | 60 (≈ 108 µM) | 8 (≈ 14.4 µM) | 30 (≈ 54.2 µM) | 125 (≈ 226 µM) | < 8 | Krafft Point [1]: 46 °C |
| O=C(O)[C@H](O)[C@@H](O)[C@H](O[C@@H]1O[C@H](CO)[C@H](O)[C@H](O)[C@H]1O)[C@H](O)CO [Lactobionic acid, reference compound] | – | – | – | – | – | – | – | Minimimum Inhibitory Concentrations (Actinomyces naeslundii; [5]): >0.5 % w/v; Minimimum Inhibitory Concentrations (Streptococcus sanguis; [7]): >0.5 % w/v; Minimimum Inhibitory Concentrations (Streptococcus sobrinus; [5]): >0.5 % w/v |
| CCCCCCCCCCCCCCN.Cl [tetradecyl ammonium hydrochloride, reference compound] | – | – | – | – | – | – | – | inhibition of coaggregation between A. naeslundii and S. sanguis [2]: inhibited coaggregation; anti-microbial activity [3]: had antibacterial activity |
| CCCCCCCCCCCCOS(=O)(=O)[O-].[Na+] [Sodium dodecyl sulfate, reference compound] | – | – | – | – | – | – | – | MIC (Actinomyces naeslundii): 8 µg/mL; MIC (Candida albicans): 60 µg/mL; MIC (Neisseria subflava): 8 µg/mL; MIC (Porphyromonas gingivalis): 2 µg/mL; MIC (Prevotella intermedius; Prevotella): 16 µg/mL; MIC (Streptococcus sanguis): 15 µg/mL; MIC (Streptococcus sobrinus): 60 µg/mL; MIC (Veillonella dispar): 60 µg/mL |
| CCCCCCCCCCNC(=O)[C@H](O)[C@@H](O)[C@H](O)[C@H](O)CO [Decylgluconamide, reference compound] | > 5000 | – | – | – | > 5000 | > 5000 | – | – |
| O=C(O)[C@H](O)[C@@H](O)[C@H](O[C@@H]1O[C@H](CO)[C@H](O)[C@H](O)[C@H]1O)[C@H](O)CO [Tetradecyl ammonium Lactobionate, Tetradecylammonium lactobionate] | – | 120 | – | – | – | – | – | inhibition at 500 µM ([2]; Actinomyces naeslundii, 0.5 mMol/L, coaggregation of A. naeslundii PK29 and S. sanguis G9B, relative to buffer control, read-out: Percent Inhibition): 0%; inhibition at 700 µM ([2]; Actinomyces naeslundii, 0.7 mMol/L, coaggregation of A. naeslundii PK29 and S. sanguis G9B, relative to buffer control, read-out: Percent Inhibition): 11%; inhibition at 900 µM ([2]; Actinomyces naeslundii, 0.9 mMol/L, coaggregation of A. naeslundii PK29 and S. sanguis G9B, relative to buffer control, read-out: Percent Inhibition): 66%; inhibition at 1400 µM ([2]; Actinomyces naeslundii, 1.4 mMol/L, coaggregation of A. naeslundii PK29 and S. sanguis G9B, relative to buffer control, read-out: Percent Inhibition): 99%; inhibition at 1800 µM ([2]; Actinomyces naeslundii, 1.8 mMol/L, coaggregation of A. naeslundii PK29 and S. sanguis G9B, relative to buffer control, read-out: Percent Inhibition): 100%; inhibition of coaggregation between A. naeslundii and S. sanguis [2]: effective inhibitor of coaggregation; Minimimum Inhibitory Concentrations (Actinomyces naeslundii; [5]): 0.006 % w/v; Minimimum Inhibitory Concentrations (Streptococcus sanguis; [7]): 0.0016 % w/v; Minimimum Inhibitory Concentrations (Streptococcus sobrinus; [5]): 0.0125 % w/v; anti-microbial activity [3]: significant anti-microbial activity |
| CCCCCNC(=O)[C@H](O)[C@@H](O)[C@H](O[C@@H]1O[C@H](CO)[C@H](O)[C@H](O)[C@H]1O)[C@H](O)CO [Pentyl lactobionmamide, N-pentyl lactobionamide] | > 5000 | > 1000 | > 1000 | > 1000 | > 1000 | > 5000 | > 1000 | MIC (Porphyromonas gingivalis; [5]): > 1000 µg/mL |
| O=C(O)[C@H](O)[C@@H](O)[C@H](O[C@@H]1O[C@H](CO)[C@H](O)[C@H](O)[C@H]1O)[C@H](O)CO [Dodecyl ammonium lactobionate, Dodecylammonium lactobionate] | – | – | 125 | 16 | – | – | 16 | Minimimum Inhibitory Concentrations (Actinomyces naeslundii; [5]): 0.003 % w/v; Minimimum Inhibitory Concentrations (Streptococcus sanguis; [7]): 0.006 % w/v; Minimimum Inhibitory Concentrations (Streptococcus sobrinus; [5]): 0.003 % w/v; anti-microbial activity [3]: significant anti-microbial activity |
| CCCCCCCCCCNC(=O)[C@H](O)[C@@H](O)[C@H](O[C@@H]1O[C@H](CO)[C@H](O)[C@H](O)[C@H]1O)[C@H](O)CO [Decyl lactobionamide, N-decyl lactobionamide] | > 500 | 500 (≈ 1000 µM) | 500 (≈ 1000 µM) | > 500 | > 500 | > 500 | 500 (≈ 1000 µM) | Krafft Point [1]: 0 °C; Initial Height ([4]; foam production, measured initially): 150 mm; After 10 Minutes ([4]; foam stability, height after 10 minutes): 5 mm |
